Reference: US20220040316A1, “TRIPLE COMBINATION THERAPIES FOR TARGETING MITOCHONDRIA AND KILLING CANCER STEM CELLS” (LUNELLA BIOTECH, INC., priority 2018, published 2022)
Entries after “also recorded” stand apart in the source; their conditions may differ.

Assays:
[1] = oral administration; cited from earlier work
rat heart = conditions: Vitamin C alone, hypoxia, previous studies; cited from earlier work
U937 cells = U937 cells incubated 15 minutes in media containing 3 μM Vitamin C; cited from earlier work
MCF7 cells [2] = assay: Metabolic flux analysis (Seahorse XFe96, OCR and ECAR); assay type: cell-based, human
Procedure: Metabolic Flux Analysis: Real-time oxygen consumption rates (OCR) and extracellular acidification rates (ECAR) rates in MCF7 cells were determined using the Seahorse Extracellular Flux (XFe96) analyzer (Seahorse Bioscience, USA). Briefly, 1.5×10^4 cells per well were seeded into XFe96 well cell culture plates, and incubated overnight to allow cell attachment. Then, cells were treated with antibiotics for 72 h. Vehicle-alone control cells were processed in parallel. After 72 hours of incubation, cells were washed in pre-warmed XF assay media (or for OCR measurement, XF assay media supplemented with 10 mM glucose, 1 mM Pyruvate, 2 mM L-glutamine and adjusted at 7.4 pH). Cells were then maintained in 175 μL/well of XF assay media at 37° C., in a non-CO2 incubator for 1 hour. During the incubation time, we loaded 25 μL of 80 mM glucose, 9 μM oligomycin, and 1M 2-deoxyglucose (for ECAR measurement) or 10 μM oligomycin, 9 μM FCCP, 10 μM rotenone, 10 μM antimycin A (for OCR measurement), in XF assay media into the injection ports in the XFe96 sensor cartridge. Measurements were normalized by protein content (Bradford assay). Data sets were analyzed using XFe96 software and GraphPad Prism software, using one-way ANOVA and Student's t-test calculations. All experiments were performed in quintuplicate, three times independently.

senescent fibroblasts = conditions: azithromycin by itself; cited from earlier work
MCF7 cells [3] = assay: Mammosphere formation assay (MFE, CSC propagation) in MCF7 cells; assay type: cell-based, human
Procedure: The data represents mammosphere counts after exposure to a compound, as a percentage of a control. The compounds were tested at concentrations of 1.5 μM, 3 μM, 6 μM, and 12 μM.
Mammosphere Formation Assay: A single cell suspension was prepared using enzymatic (1× Trypsin-EDTA, Sigma Aldrich, #T3924), and manual disaggregation (25 gauge needle). Cells were plated at a density of 500 cells/cm2 in mammosphere medium (DMEM-F12+B27+20 ng/ml EGF+PenStrep) under non-adherent conditions, in culture dishes pre-coated with (2-hydroxyethylmethacrylate) (poly-HEMA, Sigma, #P3932), called “tumor-sphere plates”. Vehicle alone (DMSO) control cells were processed in parallel. Cells were grown for 5 days and maintained in a humidified incubator at 37° C. After 5 days of culture, 3D mammospheres >50 μm were counted using an eye piece (“graticule”), and the percentage of cells plated which formed spheres was calculated and is referred to as percent mammosphere formation (MFE, and was normalized to one (1=100% MSF).

CSCs = assay: Inhibition of CSC propagation / CSC inhibition activity (assay not specified); assay type: cell-based
BJ cells = assay: Cell viability, bulk BJ cells; assay type: cell-based; conditions: range of concentrations up to 20 μM
Text: (§1) Embodiments of therapeutic agents conjugated with targeting signals have shown less toxicity in bulk cancer cells and normal fibroblasts compared to unconjugated therapeutic agents. For example, FIGS. 17A and 17B show cell viability data for doxycycline and the doxycycline-myristate conjugate shown as compound [1], for bulk MCF7 cells and bulk BJ cells, respectively. The data represents cell viability expressed as a percentage of a control. […] Similar behavior has been seen in other therapeutic agents conjugated with targeting signals.

MCF7 cells [4] = assay: Cell viability, bulk MCF7 cells; assay type: cell-based, human; conditions: range of concentrations up to 20 μM
Text: as §1

MCF7 cells [5] = assay: Cellular retention by green auto-fluorescence; assay type: cell-based, human; conditions: 10 μM, 72 hours, washed with PBS
Procedure: FIGS. 16A-16C are images comparing the cellular retention of the doxycycline-myristate conjugate, to unconjugated doxycycline. MCF7 cells were cultured in tissue culture media in the presence of either therapeutic agent (i.e., the doxycycline-myristate conjugate or unconjugated doxycycline), at a concentration of 10 μM, for 72 hours. Then, the cells were washed with PBS and any therapeutic agent retained within the cells was visualized by green auto-fluorescence, from the excitation of the tetracycline ring structure. Control cells were incubated with vehicle-alone. […] The original color in the images has been inverted, to […], and the darker regions of FIG. 16B indicate increased cellular retention of the conjugated therapeutic agent.

[6] = tested on: breast cancer tumor samples; assay: ABC trial pilot study: CSC markers in tumor samples after oral doxycycline; assay type: in vivo, human
Procedure: Doxycycline impacts cancer growth through inhibition of CSC propagation with an IC-50 between 2-to-10 μM. The Antibiotic for Breast Cancer (ABC) trial was conducted at The University of Pisa Hospital. The ABC trial aimed to assess the anti-proliferative and anti-CSC mechanistic actions of doxycycline in early breast cancer patients. […] A pilot study of the ABC trial confirmed that doxycycline treatment successfully decreases the expression of CSC markers in breast cancer tumor samples. […] This represents a 90% positive response rate.

[7] = MCF7 monolayers pre-treated 3-days, doxycycline 1 μM, azithromycin 1 μM, Vitamin C 250 μM as applicable, vs control
[8] = breast cancer patients treated with doxycycline

## O=C1O[C@H]([C@@H](O)CO)C(O)=C1O [Vit C, Ascorbic Acid]
[1]
  peak Vitamin C concentration in blood/serum/plasma: about 250
Rat heart
  increase of mitochondrial ATP production: up to 1.5 fold
U937 cells
  Vitamin C level reached in mitochondria: 5 mM
MCF7 cells [2]; [7]
  ATP production / ATP levels: significantly increased
  basal respiration: significantly increased
  glycolysis (ECAR): significantly increased
  glycolytic reserve: significantly increased
  glycolytic reserve capacity: decreasing
  maximal respiration: significantly increased
  oxidative mitochondrial metabolism (OCR): significantly increased; also recorded: increases
MCF7 cells [2]; Vitamin C alone, MCF7 cells
  increase of mitochondrial ATP production: up to 2 fold

## CC[C@H]1OC(=O)[C@H](C)[C@@H](O[C@H]2C[C@@](C)(OC)[C@@H](O)[C@H](C)O2)[C@H](C)[C@@H](O[C@@H]2O[C@H](C)C[C@H](N(C)C)[C@H]2O)[C@](C)(O)C[C@@H](C)CN(C)[C@H](C)[C@@H](O)[C@]1(C)O [azithromycin]
Senescent fibroblasts
  efficiency of senolytic activity (removal of senescent fibroblasts): ~97%
MCF7 cells [3]; drug alone at low concentrations (0.1 μM and 1 μM)
  inhibition of mammosphere formation: little or no effect

## CCCCCCCCCCCCCC(=O)N(C)[C@H]1C[C@@H](C)O[C@@H](O[C@@H]2[C@@H](C)[C@H](O[C@H]3C[C@@](C)(OC)[C@@H](O)[C@H](C)O3)[C@@H](C)C(=O)O[C@H](CC)[C@@](C)(O)[C@H](O)[C@@H](C)N(C)C[C@H](C)C[C@@]2(C)O)[C@@H]1O [compound [15]]
CSCs
  potency and selectivity for CSCs compared to azithromycin alone: improved potency and selectivity

## CCCCCCCCCCCCCC(=O)Nc1ccc2c(c1O)C(=O)C1=C(O)[C@]3(O)C(=O)C(C(N)=O)=C(O)[C@@H](N(C)C)C3[C@@H](O)C1[C@H]2C (stereo partly drawn) [doxycycline-myristate conjugate, (4S,5S,6R,12aS)-4-(dimethylamino)-3,5,10,12,12a-pentahydroxy-6-methyl-1,11-dioxo-9-(tetradecanoylamino)-4a,5,5a,6-tetrahydro-4H-tetracene-2-carboxamide]
BJ cells
  toxicity (cell viability as percentage of control) compared with doxycycline: less toxic
CSCs; fatty acid conjugates (myristate where stated)
  CSC inhibition activity compared with the unconjugated antibiotic: better CSC inhibitory properties
MCF7 cells [4]
  toxicity (cell viability as percentage of control) compared with doxycycline: less toxic
MCF7 cells [5]
  cellular retention compared to doxycycline alone: significantly improved cellular retention
MCF7 cells [3]; MCF7, 1.5 μM, 3 μM, 6 μM and 12 μM, mammosphere counts as percentage of control
  potency in mammosphere assay compared with unconjugated doxycycline: more potent
MCF7 cells [3]; from IC50 values, MCF7 mammosphere assay
  times more potent than doxycycline for inhibiting CSC propagation: over 5 times

## C[C@H]1c2cccc(O)c2C(=O)C2=C(O)[C@]3(O)C(=O)C(C(N)=O)=C(O)[C@@H](N(C)C)[C@@H]3[C@@H](O)[C@@H]21 [doxycycline]
[6]; [8]
  positive response rate (CD44): 90%
  rise in CD44, one patient: 15%
[6]; early breast cancer patients, short-term pre-operative oral doxycycline
  decrease in the stemness marker CD44, post-doxycycline vs pre-doxycycline tumor samples: 40%
